From ChEMBL document CHEMBL1201862, “PubChem BioAssay data set” (2004)
Active and inactive are the calls of the source.

How the values were obtained:
[1] = target: T1, Oxysterols receptor LXR-beta (Homo sapiens, UniProt P55055); type: functional, cell-based;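 further: Cell-based luminescence dose-response assay of agonist activity at LXR, run as a confirmatory counterscreen to a daf-12 agonist screen; agonist potency from rising luciferase signal of a Gal4-LXR reporter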
T1 sequence (P55055 whole entry): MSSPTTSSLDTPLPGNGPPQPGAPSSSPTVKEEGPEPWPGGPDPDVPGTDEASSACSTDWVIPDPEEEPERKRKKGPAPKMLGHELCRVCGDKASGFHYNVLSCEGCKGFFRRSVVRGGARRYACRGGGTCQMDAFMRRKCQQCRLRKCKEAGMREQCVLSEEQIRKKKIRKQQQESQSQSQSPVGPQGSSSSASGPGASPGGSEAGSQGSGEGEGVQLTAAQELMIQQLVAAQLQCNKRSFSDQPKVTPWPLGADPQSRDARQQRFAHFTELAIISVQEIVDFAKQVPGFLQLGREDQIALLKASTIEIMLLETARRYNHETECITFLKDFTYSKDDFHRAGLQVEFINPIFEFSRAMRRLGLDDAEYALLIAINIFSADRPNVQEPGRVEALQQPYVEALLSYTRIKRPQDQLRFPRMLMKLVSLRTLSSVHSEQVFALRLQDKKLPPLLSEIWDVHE

[2] = target: T2, Luciferin 4-monooxygenase (Photinus pyralis, UniProt P08659); assay: inhibition of purified Photinus pyralis luciferase – biochemical, luminescence, dose response (AID 1891)
T2 sequence (P08659 whole entry): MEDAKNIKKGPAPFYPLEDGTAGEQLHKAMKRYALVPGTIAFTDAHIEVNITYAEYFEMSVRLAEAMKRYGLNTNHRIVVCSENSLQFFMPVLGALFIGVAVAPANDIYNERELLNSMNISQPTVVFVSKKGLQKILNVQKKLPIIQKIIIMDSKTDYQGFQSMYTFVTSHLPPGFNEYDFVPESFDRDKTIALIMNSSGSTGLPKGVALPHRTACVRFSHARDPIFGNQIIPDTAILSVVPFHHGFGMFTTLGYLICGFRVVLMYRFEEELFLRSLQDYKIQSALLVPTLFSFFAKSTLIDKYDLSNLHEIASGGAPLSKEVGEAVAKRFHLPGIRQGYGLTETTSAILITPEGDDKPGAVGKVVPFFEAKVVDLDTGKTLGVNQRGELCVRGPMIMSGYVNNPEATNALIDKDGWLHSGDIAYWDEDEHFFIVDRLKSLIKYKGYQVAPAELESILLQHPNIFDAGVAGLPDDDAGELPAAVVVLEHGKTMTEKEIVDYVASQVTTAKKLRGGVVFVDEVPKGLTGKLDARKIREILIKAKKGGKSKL

[3] = cells
[4] = Luminescence Cell-Based Dose Confirmation HTS to Identify Inhibitors of Platelet Dense Granule Release. [Related pubchem assays: 1663 (Primary HTS), 1678 (Summary of Project)]; type: functional
[5] = target: Peroxisome proliferator-activated receptor gamma/Nuclear receptor coactivator 2 (Homo sapiens, UniProt P37231); type: functional;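 further: agonist potency for raising coactivator recruitment to the receptor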
[6] = target: Peroxisome proliferator-activated receptor gamma/Nuclear receptor coactivator 3 (Homo sapiens, UniProt P37231); type: functional;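 further: agonist potency for raising coactivator recruitment to the receptor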
[7] = target: Peroxisome proliferator-activated receptor gamma/Nuclear receptor coactivator 1 (Homo sapiens, UniProt P37231); type: functional;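 further: agonist potency as compounds enhance coactivator SRC-1 recruitment to PPARgamma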
Peroxisome proliferator-activated receptor gamma/Nuclear receptor coactivator 1, sequence (P37231 whole entry): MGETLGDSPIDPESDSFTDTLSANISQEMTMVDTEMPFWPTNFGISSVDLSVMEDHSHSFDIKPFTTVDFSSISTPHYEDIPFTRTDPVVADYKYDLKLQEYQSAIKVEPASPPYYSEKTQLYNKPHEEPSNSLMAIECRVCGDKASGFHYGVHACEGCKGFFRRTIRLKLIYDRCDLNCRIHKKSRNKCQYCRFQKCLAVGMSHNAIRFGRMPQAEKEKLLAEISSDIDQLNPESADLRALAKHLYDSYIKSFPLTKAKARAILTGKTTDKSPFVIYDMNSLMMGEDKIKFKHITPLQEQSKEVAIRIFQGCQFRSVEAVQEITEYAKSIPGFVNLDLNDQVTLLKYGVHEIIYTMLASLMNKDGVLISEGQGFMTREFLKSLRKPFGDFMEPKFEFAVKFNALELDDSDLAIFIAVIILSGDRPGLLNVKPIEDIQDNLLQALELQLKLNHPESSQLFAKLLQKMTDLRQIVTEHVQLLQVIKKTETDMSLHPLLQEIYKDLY
Peroxisome proliferator-activated receptor gamma/Nuclear receptor coactivator 1, sequence (Q15788 whole entry, further chain): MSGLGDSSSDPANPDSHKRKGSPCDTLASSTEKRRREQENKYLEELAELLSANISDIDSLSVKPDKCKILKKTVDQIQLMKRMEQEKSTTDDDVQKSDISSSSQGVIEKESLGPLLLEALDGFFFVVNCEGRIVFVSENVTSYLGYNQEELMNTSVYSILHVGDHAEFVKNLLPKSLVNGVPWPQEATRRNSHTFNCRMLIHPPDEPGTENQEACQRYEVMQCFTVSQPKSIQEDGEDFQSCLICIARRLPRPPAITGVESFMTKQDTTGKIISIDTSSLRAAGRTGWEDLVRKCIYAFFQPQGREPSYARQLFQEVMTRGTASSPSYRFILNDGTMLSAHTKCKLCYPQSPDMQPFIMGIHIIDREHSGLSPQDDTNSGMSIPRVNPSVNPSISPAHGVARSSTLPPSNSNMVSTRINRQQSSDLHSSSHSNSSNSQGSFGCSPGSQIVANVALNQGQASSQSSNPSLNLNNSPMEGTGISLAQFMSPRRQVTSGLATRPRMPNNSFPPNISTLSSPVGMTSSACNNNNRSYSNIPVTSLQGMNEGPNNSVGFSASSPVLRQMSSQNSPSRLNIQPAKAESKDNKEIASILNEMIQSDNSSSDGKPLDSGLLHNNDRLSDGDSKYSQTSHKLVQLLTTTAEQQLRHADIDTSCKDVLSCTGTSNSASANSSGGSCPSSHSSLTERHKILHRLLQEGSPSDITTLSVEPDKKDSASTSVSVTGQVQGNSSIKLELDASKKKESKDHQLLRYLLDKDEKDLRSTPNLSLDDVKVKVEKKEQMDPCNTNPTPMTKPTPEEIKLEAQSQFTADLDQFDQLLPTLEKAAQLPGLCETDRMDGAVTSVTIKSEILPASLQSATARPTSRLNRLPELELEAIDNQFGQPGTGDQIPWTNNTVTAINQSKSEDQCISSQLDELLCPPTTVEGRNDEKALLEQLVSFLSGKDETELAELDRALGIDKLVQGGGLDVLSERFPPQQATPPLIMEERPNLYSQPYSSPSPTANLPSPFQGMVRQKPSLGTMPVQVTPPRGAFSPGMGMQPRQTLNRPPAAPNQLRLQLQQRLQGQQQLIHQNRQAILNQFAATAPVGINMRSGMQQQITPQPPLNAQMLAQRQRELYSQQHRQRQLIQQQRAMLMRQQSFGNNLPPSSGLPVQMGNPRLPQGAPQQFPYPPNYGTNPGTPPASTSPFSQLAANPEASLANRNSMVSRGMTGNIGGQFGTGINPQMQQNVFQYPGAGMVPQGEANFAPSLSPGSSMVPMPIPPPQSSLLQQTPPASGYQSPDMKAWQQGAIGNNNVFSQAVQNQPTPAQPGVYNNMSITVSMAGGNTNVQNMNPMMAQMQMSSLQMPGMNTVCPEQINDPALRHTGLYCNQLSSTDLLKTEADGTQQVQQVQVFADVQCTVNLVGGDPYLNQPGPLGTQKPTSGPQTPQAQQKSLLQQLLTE

[8] = Luminescence-based cell-based high throughput dose response assay to identify activators of the DAF-12 from the parasite S. stercoralis (ssDAF-12).; type: functional
[9] = target: T1, Oxysterols receptor LXR-beta; assay: LXR agonists, Gal4 luciferase reporter, dose response, counter-screen for ssDAF-12 agonist project, cell-based, luminescence, HEK293, S. stercoralis campaign (AID 720737); type: functional; settings: read-out: IC50 (the source's name)
[10] = target: T3, Epstein-Barr nuclear antigen 1 (Epstein-Barr virus (strain B95-8) (HHV-4) (Human herpesvirus 4), UniProt P03211); assay: inhibition of EBV nuclear antigen 1 DNA binding – biochemical, fluorescence polarization, 1536-well, dose response (AID 2381); parameters: species or system human gammaherpesvirus 4;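 further: fluorescence polarization of a Cy5 DNA probe bound by EBNA-1 protein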
T3 sequence (P03211 whole entry): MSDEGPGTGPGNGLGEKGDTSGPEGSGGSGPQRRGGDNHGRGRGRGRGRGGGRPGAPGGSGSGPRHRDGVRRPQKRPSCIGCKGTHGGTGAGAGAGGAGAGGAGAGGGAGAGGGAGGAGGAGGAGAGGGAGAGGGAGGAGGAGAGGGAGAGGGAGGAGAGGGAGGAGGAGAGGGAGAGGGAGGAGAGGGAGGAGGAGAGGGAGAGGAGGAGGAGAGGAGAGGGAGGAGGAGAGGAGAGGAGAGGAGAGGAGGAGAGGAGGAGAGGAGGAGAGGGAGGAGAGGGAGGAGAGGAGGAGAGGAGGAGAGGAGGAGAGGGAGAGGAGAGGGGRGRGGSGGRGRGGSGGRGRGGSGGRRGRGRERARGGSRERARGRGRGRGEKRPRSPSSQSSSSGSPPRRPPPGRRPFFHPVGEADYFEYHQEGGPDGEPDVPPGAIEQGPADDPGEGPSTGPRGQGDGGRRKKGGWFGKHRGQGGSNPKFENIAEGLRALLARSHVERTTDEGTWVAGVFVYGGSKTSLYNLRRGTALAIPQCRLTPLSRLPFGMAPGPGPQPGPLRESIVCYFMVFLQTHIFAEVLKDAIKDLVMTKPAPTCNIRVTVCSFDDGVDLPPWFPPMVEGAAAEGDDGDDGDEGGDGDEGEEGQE

[11] = target: T4, Lytic switch protein BZLF1 (Epstein-Barr virus (strain B95-8) (HHV-4) (Human herpesvirus 4), UniProt P03206); assay: inhibition of BZLF1 ZTA DNA binding – biochemical, fluorescence polarization, Epstein-Barr virus, 1536-well, counter-screen for EBNA-1 inhibitor project, dose response (AID 2377); parameters: species or system human gammaherpesvirus 4;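 further: fluorescence polarization of Cy5-labelled ZRE DNA probe bound by purified Zta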
T4 sequence (P03206 whole entry): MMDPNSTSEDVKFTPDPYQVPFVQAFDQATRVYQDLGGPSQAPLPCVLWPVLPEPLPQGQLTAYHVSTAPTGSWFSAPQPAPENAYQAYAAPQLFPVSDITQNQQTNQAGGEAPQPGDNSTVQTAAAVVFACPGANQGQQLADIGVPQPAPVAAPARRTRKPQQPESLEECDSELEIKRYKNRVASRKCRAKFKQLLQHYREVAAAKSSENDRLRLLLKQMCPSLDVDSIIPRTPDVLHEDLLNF

[12] = potency of ADAM10 substrate cleavage blockers – biochemical, QFRET, dose response (AID 743254);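 further: ADAM10 enzyme with the DM2 quenched FRET peptide as substrate; EDANS fluorescence gain as the protease cuts the substrate; inhibitor potency against ADAM10 proteolytic activity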
[13] = target: Disintegrin and metalloproteinase domain-containing protein 17 (Homo sapiens, UniProt P78536); assay: inhibition of ADAM17 substrate cleavage – biochemical, quenched FRET substrate, counter-screen for ADAM10 exosite inhibitor project, dose response (AID 743253)
Disintegrin and metalloproteinase domain-containing protein 17, sequence (P78536 whole entry, the tested form may be a part): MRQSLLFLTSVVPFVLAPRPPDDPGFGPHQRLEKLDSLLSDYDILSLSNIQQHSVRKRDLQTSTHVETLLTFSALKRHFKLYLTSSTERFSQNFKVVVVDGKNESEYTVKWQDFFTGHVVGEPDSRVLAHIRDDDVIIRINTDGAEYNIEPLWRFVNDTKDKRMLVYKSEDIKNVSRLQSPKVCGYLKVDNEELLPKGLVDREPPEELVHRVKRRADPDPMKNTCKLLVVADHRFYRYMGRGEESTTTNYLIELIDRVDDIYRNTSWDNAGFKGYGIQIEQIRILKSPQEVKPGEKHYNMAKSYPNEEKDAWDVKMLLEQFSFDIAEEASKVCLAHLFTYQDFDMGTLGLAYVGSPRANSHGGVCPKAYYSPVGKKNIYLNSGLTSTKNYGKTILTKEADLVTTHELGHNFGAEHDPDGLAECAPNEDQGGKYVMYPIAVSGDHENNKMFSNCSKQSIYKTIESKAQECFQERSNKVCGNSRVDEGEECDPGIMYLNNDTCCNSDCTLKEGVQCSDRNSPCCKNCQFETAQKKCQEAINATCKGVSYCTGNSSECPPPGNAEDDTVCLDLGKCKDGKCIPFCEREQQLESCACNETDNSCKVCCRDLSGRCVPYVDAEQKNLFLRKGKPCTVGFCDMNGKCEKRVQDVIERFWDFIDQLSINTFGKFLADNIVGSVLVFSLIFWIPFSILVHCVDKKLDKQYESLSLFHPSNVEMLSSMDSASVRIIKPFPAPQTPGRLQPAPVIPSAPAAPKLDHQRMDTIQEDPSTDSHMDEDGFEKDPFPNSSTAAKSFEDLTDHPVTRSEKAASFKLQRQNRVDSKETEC

[14] = microbe, parasite or virus in culture; type: functional; settings: Mycobacterium tuberculosis
[15] = target: E3 ubiquitin-protein ligase Mdm2 (Homo sapiens, UniProt Q00987); assay: MDM2-luc reporter signal enhancers, multi-concentration potency testing, MDM2 ubiquitin-protein ligase inhibitor program, whole-cell format, luminescence detection, 384-well microplate (AID 1394); type: functional;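 further: MDM2 E3 inhibitors raise luminescence so EC50 is for signal enhancement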
E3 ubiquitin-protein ligase Mdm2, sequence (Q00987 whole entry): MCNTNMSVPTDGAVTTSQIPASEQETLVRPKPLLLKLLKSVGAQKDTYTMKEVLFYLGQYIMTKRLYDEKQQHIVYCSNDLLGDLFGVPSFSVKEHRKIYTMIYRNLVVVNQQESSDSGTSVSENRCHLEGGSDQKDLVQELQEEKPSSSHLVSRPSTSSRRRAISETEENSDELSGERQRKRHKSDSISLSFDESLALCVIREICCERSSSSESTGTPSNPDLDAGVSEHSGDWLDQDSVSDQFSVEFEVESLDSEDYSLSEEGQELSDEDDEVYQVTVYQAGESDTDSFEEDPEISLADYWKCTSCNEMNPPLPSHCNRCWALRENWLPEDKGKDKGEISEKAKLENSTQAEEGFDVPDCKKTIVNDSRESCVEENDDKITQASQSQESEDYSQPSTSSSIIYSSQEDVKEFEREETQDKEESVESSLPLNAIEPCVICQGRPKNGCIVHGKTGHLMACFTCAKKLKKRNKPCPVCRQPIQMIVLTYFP

[16] = Luminescence Cell-Based Dose Retest to Confirm Inhibitors of Cancer Stem Cells. [Related pubchem assays (depositor defined):AID2717, AID2721]; type: functional; settings: Homo sapiens
[17] = viability of uninfected HEp-2 cells – cell-based, HTS, cytotoxicity control for RSV inhibitor project, dose response (AID 2410); type: functional; settings: human respiratory syncytial virus
[18] = tested on: HT-1080; assay: HT1080 cell viability loss – fluorescence readout (AID 620); type: functional, cell-based; settings: Homo sapiens
[19] = target: T2, Luciferin 4-monooxygenase; assay: Counter Screen for Luciferase-based Assay Positives. [Related pubchem assays: 620, 618, 411 ]
[20] = NIH3T3 cell viability loss – ATP luminescence, mouse fibroblasts, counter-screen, dose response (AID 2010); type: functional, cell-based;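 further: cells exposed to compound for about 90 hours before reading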
[21] = Trypanosoma cruzi growth suppression in host cells – NIH3T3 host cells, beta-gal luminescence, confirmation (AID 2044); type: functional, cell-based;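 further: intracellular parasites grown in NIH/3T3 mouse fibroblasts as host cells; luminescent beta-galactosidase reporter signal from transgenic T. cruzi replicating inside host cells; inhibitors lower the luminescence signal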
[22] = HPDE-C7 pancreatic duct cell viability loss – fluorescence, HTS (AID 430); type: functional, cell-based; settings: Homo sapiens
[23] = viability loss of HPDE-C7K cells – cell-based, fluorescence, HTS, primary screen (AID 431); type: functional; settings: Homo sapiens
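Wherever AC50 is given: cells exposed to compound for roughly 70 hours or longer before luminescence read.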

With COc1ccc(C(=O)/C=C/Nc2cc(C)ccn2)cc1 the EC50 [1] was > 67.6 µM (inactive), the EC50 [2] was 1.69 µM (active) and the EC50 [3] was > 67.6 µM (inactive). The EC50 [4] was 7.6 µM (active).
In the case of COc1ccc(NCCNc2ccc(OC)cc2)cc1, the EC50 [5] is reported as > 79.4 µM (not active), the EC50 [6] is reported as > 79.4 µM (not active) and the EC50 [7] is reported as > 79.4 µM (not active).
With Oc1ccccc1-c1cc(-c2ccccc2Cl)[nH]n1 the IC50 [8] was > 67.5 µM (inactive) and the EC50 [9] was > 67.5 µM (inactive).
For Clc1ccccc1Cn1nnc(-c2ccccc2)n1, the IC50 [8] was > 67.5 µM (inactive) and the EC50 [9] was > 67.5 µM (inactive).
For Cc1cccc(N(C(=O)c2snc(C(N)=O)c2N)C(C(=O)NCC2CCCO2)c2ccc(N(C)C)cc2)c1C (stereo unspecified), the IC50 [10] was 2.73 µM (active) and the IC50 [11] was > 111 µM (not active).
In the case of O=C(NC(C(=O)N/N=C/c1cccc2ccccc12)c1nnc(O)c2ccccc12)c1ccccc1 (stereo unspecified), the IC50 [12] is reported as > 69.5 µM (inactive), the IC50 [13] is reported as > 69.5 µM (inactive) and the CC50 [14] is reported as > 40 µM (active).
With COc1ccc(C2C(C(=O)N3CCN(C)CC3)c3cc(OC)c(OC)cc3C(=O)N2C)cc1 (stereo unspecified) the EC50 [15] was 2.94 µM (not active).
In the case of CC(/C=C1\SC(=O)N(CC(=O)Nc2cccc(O)c2)C1=O)=C\c1ccccc1, the AC50 [16] is reported as 4.04 µM (active), the IC50 [12] is reported as 10.2 µM (inactive) and the IC50 [13] is reported as > 69.5 µM (inactive). The CC50 [17] was 13.9 µM (active).
In the case of O/C(=C\C=N\c1cccc(O)c1)c1ccccc1, the EC50 [18] is reported as > 50 µM (not active), the EC50 [1] is reported as > 67.6 µM (inactive) and the EC50 [3] is reported as > 67.6 µM (inactive). For the same compound, the EC50 [19] was 1.03 µM (active).
In the case of O=C(CN(Cc1cccs1)S(=O)(=O)c1ccc(S(=O)(=O)NC2CCCCC2)cc1)Nc1ccccc1, the EC50 [20] is reported as > 60 µM (not active), the IC50 [12] is reported as 7.69 µM (active) and the IC50 [13] is reported as > 69.5 µM (inactive). For the same compound, the EC50 [21] was 2.08 µM (active).
For O=C(c1ccc(F)cc1)N1CCC(N2CCCCCC2)CC1, the EC50 [22] was > 20 µM (not active) and the EC50 [23] was > 20 µM (not active).
